# Laboratory results published in patent US20100055078A1, “METHODS OF MAKING A TRANSPLANTABLE BONE REPAIR SYSTEM USING MULTIPOTENT STEM CELLS” (The Government of the U.S.A, as represented by the …, priority 2008, published 2010).
# “Also recorded” adds a separate entry of the source.
# What was measured:
# Format in all cases: cell-based
# MC3T3-E1 cell monolayers = test: Cell re-growth and migration into the coverslip defect, rhodamine phalloidin microscopy; settings: for re-growth of cells into the defect, in words / relative migration: 24 hours after injury; for pattern of re-growth and cell morphology in the defect, in words: FGF-2 0.2 ng/ml, PGE2 10 μg/ml; for relative migration: from wound site to migrating edge
# Protocol: Cell culture: Cloned MC3T3-E1 osteoblasts (Kodama et al., J. Cell. Physiol. 112:89-95, 1992) were maintained in alpha MEM medium (Catalog No. MT15012CV Fisher Scientific, Pittsburgh, Pa.) containing 10% fetal bovine serum (FBS), 1% antibiotic solution and 1% glutamine solution and subcultured every 3 to 4 days. The cells were subcultured by incubating with trypsin for five minutes and resuspending at a concentration of 3×10^5 cells/ml. For experiments, cells were grown in the same medium as above, using multiwell plates (35 mm for microscopy and 22 mm for thymidine uptake studies). Each well contained a round 12 mm glass cover slip. Cultures for microscopy contained a 22 mm diameter coverslip with a 12 mm coverslip on top. After three days, the cells reached confluence and differentiation medium (DM) was added. DM was alpha MEM medium containing 10% FBS, 1% antibiotic solution and 1% glutamine solution, supplemented with ascorbic acid (50 μg/ml) and β-glycerol phosphate (10 mM) to induce mineralization. The cultures were then incubated for 9 more days. Microscopic examination was done at this time, using Von Kossa stain to confirm mineralization of the cultures. A critical defect in the mineralized cell layers was created by removing the 12 mm coverslips under sterile conditions and then incubating the cultures for an additional 24 hours in DM containing 4% FBS with IGF-1 (20 ng/ml), FGF-2 (0.2 ng/ml), PDGF (3 ng/ml), TGFβ ([…]). At least triplicate independent biological samples in multiple experiments were carried out for data collection.
# Microscopy: At the conclusion of the 24 hour incubation, the remaining 22 mm coverslip containing the regenerating area of the culture was removed. The specimen was rinsed five times in room temperature phosphate buffered saline (PBS) and fixed. Cells were visualized with the F-actin probe rhodamine phalloidin (Invitrogen, Carlsbad, Calif.). After rinsing in distilled water and air drying the samples, the coverslips were mounted on microscope slides using FLUOROMOUNT™ and the cells were examined and photographed. Photomicrographs were made on a Zeiss Axioskop epi-fluorescent microscope using a 40× objective. Migration was measured on the photomicrographs from the site of the wound to the migrating edge using a metric ruler (n=3) for each measurement.
# MC3T3-E1 osteoblasts = test: [3H]-thymidine incorporation into DNA in wounded mineralized cell layers (in vitro fracture model); settings: for increase of thymidine incorporation: wounded MC3T3-E1, 24 hour treatment, FGF-2 0.2 ng/ml, TGFβ 2 ng/ml, PGE2; for change in DNA synthesis (thymidine incorporation), in words: wounded MC3T3-E1, within twenty-four hours of treatment
# Protocol: (§1) Cell culture: Cloned MC3T3-E1 osteoblasts (Kodama et al., J. Cell. Physiol. 112:89-95, 1992) were maintained in alpha MEM medium (Catalog No. MT15012CV Fisher Scientific, Pittsburgh, Pa.) containing 10% fetal bovine serum (FBS), 1% antibiotic solution and 1% glutamine solution and subcultured every 3 to 4 days. The cells were subcultured by incubating with trypsin for five minutes and resuspending at a concentration of 3×10^5 cells/ml. For experiments, cells were grown in the same medium as above, using multiwell plates (35 mm for microscopy and 22 mm for thymidine uptake studies). Each well contained a round 12 mm glass cover slip. Cultures for microscopy contained a 22 mm diameter coverslip with a 12 mm coverslip on top. After three days, the cells reached confluence and differentiation medium (DM) was added. DM was alpha MEM medium containing 10% FBS, 1% antibiotic solution and 1% glutamine solution, supplemented with ascorbic acid (50 μg/ml) and β-glycerol phosphate (10 mM) to induce mineralization. The cultures were then incubated for 9 more days. Microscopic examination was done at this time, using Von Kossa stain to confirm mineralization of the cultures. A critical defect in the mineralized cell layers was created by removing the 12 mm coverslips under sterile conditions and then incubating the cultures for an additional 24 hours in DM containing 4% FBS with IGF-1 (20 ng/ml), FGF-2 (0.2 ng/ml), PDGF (3 ng/ml), TGFβ (2 ng/ml) or PGE2 (2 μg/ml). At least triplicate independent biological samples in multiple experiments were carried out for data collection.
# Tritiated thymidine incorporation into DNA: At the conclusion of the 24 hour incubation, the culture medium was removed and the cells were incubated for 15 minutes at 37° C. in 1 ml PBS containing tritiated thymidine (4 μCi/ml). Following this incubation, the PBS was removed and the cells washed 3 times with ice cold trichloroacetic acid (TCA) followed by ice cold ethanol and allowed to air dry. Then 1 ml of sarkosyl lysis buffer ([…] containing 1% sarkosyl) was added to each well; all the cells were solubilized after 30 minutes. Finally, after mixing the resulting solution with a pipette, radioactivity was counted in a scintillation counter and protein content was measured. The data was calculated and expressed as disintegrations per minute per microgram protein.
# [1] = system: Wounded Mineralized MC3T3-E1 Cells; test: Total protein content of wounded mineralized cultures (Bio-Rad DC protein assay); settings: normalized to the control culture; 24 hours of treatment
# Protocol: as §1
# Protein assay: Protein concentration was determined by Bio-Rad DC™ protein assay (Bio-Rad, Hercules, Calif.) according to the manufacturer's protocol.
# MC3T3-E1 cells [2] = test: Cell growth on pre-treated nylon ribbons; settings: up to 4 days, 0.1 mg/ml fibrinogen, HAHp, 50 ng/ml FGF-2
# Protocol: Growth on Nylon Ribbons: 250,000 MC3T3-E1 osteoblast cells were seeded in 12-well plates containing 1 inch by 1 inch nylon ribbons pre-treated with 0.1 mg/ml fibrinogen or 1 mg/ml HA and 3 mg/ml heparin (HAHp) with or without 50 ng/ml FGF-2. Cells were visualized under 10× objective at 1 and 4 days after seeding.
# MC3T3-E1 cells [3] = test: qRT-PCR gene expression in mineralizing cells treated with growth factor
# Protocol: Cell Culture: MC3T3-E1 cells were grown and mineralized essentially as described in Example 1.
# RNA Isolation: RNA was isolated using the RNeasy™ Mini kit (Qiagen, Valencia, Calif.) or TriReagent™ (Sigma-Aldrich, St. Louis, Mo.) according to the manufacturer's protocol.
# Reverse Transcription: 1.5 μg of RNA was added to 30 μl reverse transcriptase (RT) reaction buffer containing 5 mM MgCl2, 10 mM Tris-HCl (pH 8.3), 50 mM KCl, 1 mM dNTPs, 2.5 μM oligo d(T) primer, 2.5 U/μl of MuLV RT, and 1 U/μl of RNase inhibitor. The RT reaction was incubated at room temperature for 10 min, 42° C. for 30 min, inactivated at 99° C. for 5 min, and cooled at 5° C. for 5 min.
# Real-time Quantitative RT-PCR Reaction (qRT-PCR): 2 μl of cDNA from the RT reaction was added to 20 μl real-time quantitative polymerase chain reaction (qRT-PCR) mixture containing 10 μl of 2×SYBR® Green PCR Master Mix (Applied Biosystems, Foster City, Calif.) and 12 pmol oligonucleotide primers. PCR was carried out in a Bio-Rad MY iQ® Single-Color Real-Time PCR Detection System (Bio-Rad, Hercules, Calif.) at 50° C. for 2 min, 95° C. for 10 min to activate the Taq polymerase, followed by 50 amplification cycles, consisting of denaturation at 95° C. for 1 min 40 sec, annealing at 63° C. for 1 min 10 sec, and elongation at 72° C. for 1 min 40 sec. Fluorescence was measured and used for quantitative purposes. At the end of the amplification period, melting curve analysis was performed to confirm the specificity of the amplicon. RNA samples were normalized to a cyclophilin (CPHI) internal standard. Relative quantification of gene expression was calculated by using the 2^−(Ct gene T−Ct CPHI T)−(Ct gene 0 hr−Ct CPHI 0 hr) equation, where “Ct gene T” represents the calculated threshold cycle (Ct) of a time point of each sample other than 0 hr, or each treatment other than control. Relative gene abundance is calculated using 2^(Ct gene T−Ct CPHI T), resulting numbers were then multiplied by 10,000 for better graphical presentation. Primer sequences were previously described (Hughes-Fulford and Gilbertson, FASEB J. 13:S121-127, 1999; Hughes-Fulford et al., Gravit. Space Biol. Bull. 11:51-60, 1998; Tjandrawinata and Hughes-Fulford, Adv. Exp. Med. Biol. 407:163-170, 1997; Hughes-Fulford, Adv. Exp. Med. Biol. 400A:269-278, 1997; Hughes-Fulford and Lewis, Exp. Cell Res. 224:103-109, 1996). All data derived using qRT-PCR was from multiple experiments with triplicate independent biological samples.
# human MSCs = test: Cell migration and growth in the center of a pre-treated collagen sponge; design: key to Cell Growth in Sponge: One positive (+) indicates low cell number visible in the field; two positives (++) indicates a thin layer of cells visible in the field; three positives (+++) indicates many cells visible in the field
# [4] = system: human mesenchymal stem cells (hMSC); test: Proliferation of mesenchymal stem cells, CyQuant relative cell number; settings: of treatment
# Protocol: Mesenchymal stem cells were isolated from bone marrow by adding 50 μl ROSETTESEP® human mesenchymal stem cell enrichment cocktail (StemCell Technologies, Vancouver, BC, Canada) to each ml of bone marrow. The mixture was incubated for 20 minutes at room temperature and then diluted 2× with PBS containing 2% FBS and 1 mM EDTA. The diluted sample was layered on FICOLL-PAQUE™ (StemCell Technologies, Vancouver, BC, Canada) and centrifuged at 300×g for 25 minutes. Enriched MSCs were removed from the FICOLL-PAQUE™:plasma interface, washed with PBS containing 2% FBS and 1 mM EDTA, and resuspended in αMEM culture medium.
# Isolated MSCs were seeded to 96-well plates. […] 2,000 cells per well were seeded on 96-well plates. […] Relative cell number was obtained with a CYQUANT® Cell Proliferation kit (Invitrogen, Carlsbad, Calif.) according to the manufacturer's protocol.
# MC3T3-E1 cells [5] = test: Cell proliferation on ECM protein coated wells with FGF-2, CyQuant; settings: wells containing ECM proteins and FGF-2
# Protocol: Cell Proliferation: Five-hundred MC3T3-E1 osteoblast like cells were plated on a 96 well plate with ECM proteins coated on the bottom of the well. Sextuplet independent samples with and without FGF-2 were each plated in wells and 500 MC3T3-E1 cells were then adhered and grown for 3 days. Cell number was measured using CyQuant assay kit. Medium was changed daily
# [6] = 24 hours, FGF-2 5 ng/ml or BMP-2 100 ng/ml, corrected to cyclophilin
compound,measurement,setting,value
"CCCCC[C@H](O)/C=C/[C@H]1[C@H](O)CC(=O)[C@@H]1C/C=C\CCCC(=O)O [PGE2, prostaglandin E2, reference compound]","re-growth of cells into the defect, in words",MC3T3-E1 cell monolayers,showed cellular proliferation at the interface of the mature cultures and the defect
same,"pattern of re-growth and cell morphology in the defect, in words",MC3T3-E1 cell monolayers,more linear pattern and formed multiple elongated pseudopodia
same,relative migration,MC3T3-E1 cell monolayers,3.2±0.2 mm
same,increase of thymidine incorporation,MC3T3-E1 osteoblasts,> 3.3 fold
same,"change in DNA synthesis (thymidine incorporation), in words",MC3T3-E1 osteoblasts,significantly enhanced
same,Total Protein/Culture,[1],1.51
fibrinogen,"cell growth on nylon ribbon, in words",MC3T3-E1 cells [2],Little or no cell proliferation
fibroblast growth factor-2 [FGF-2],Relative abundance of gene expression: ALP,MC3T3-E1 cells [3]; [6],13.39
same,Relative abundance of gene expression: BMP-2,MC3T3-E1 cells [3]; [6],**0.06
same,Relative abundance of gene expression: Collagen Type I,MC3T3-E1 cells [3]; [6],**678.21
same,Relative abundance of gene expression: Fibronectin,MC3T3-E1 cells [3]; [6],*28432.19
same,Relative abundance of gene expression: IGF-1,MC3T3-E1 cells [3]; [6],**50.65
same,Relative abundance of gene expression: MMP3,MC3T3-E1 cells [3]; [6],**4.04
same,Relative abundance of gene expression: Noggin,MC3T3-E1 cells [3]; [6],*1.61
same,Relative abundance of gene expression: OC,MC3T3-E1 cells [3]; [6],**1.38
same,Relative abundance of gene expression: RUNX2,MC3T3-E1 cells [3]; [6],**674.95
same,Relative abundance of gene expression: TGFβ,MC3T3-E1 cells [3]; [6],**245.40
same,Relative abundance of gene expression: VEGFA,MC3T3-E1 cells [3]; [6],**5132.66
same,"expression of genes associated with mineralization (col1a1, fn, bmp-2, oc, runx2, noggin), in words",MC3T3-E1 cells [3]; over 24 hours,significantly decreased; also recorded: significantly suppressed
same,"expression of igf-1, in words",MC3T3-E1 cells [3]; over 24 hours,significantly decreased
same,"expression of egr-1, fgf-2, cox-2, tgfβ, mmp3, vegfA and vegfr1, in words",MC3T3-E1 cells [3]; over a 24 hour period,dramatically induced
same,"re-growth of cells into the defect, in words",MC3T3-E1 cell monolayers,showed cellular proliferation at the interface of the mature cultures and the defect
same,"pattern of re-growth and cell morphology in the defect, in words",MC3T3-E1 cell monolayers,rapid coverage of the defect void
same,relative migration,MC3T3-E1 cell monolayers,5.4±0.5 mm
same,"cell growth on nylon ribbon, in words",MC3T3-E1 cells [2],Little or no cell proliferation
same,Cell Growth in Sponge,"human MSCs; center of collagen sponge, after four days, 100 ng/ml FGF-2, 0.1 mg/ml fibrinogen, HAHp 0.3% w/w heparin with 1% hyaluronic acid",+
same,"cells observed in the collagen sponge, in words",human MSCs; pre-treated collagen sponge,Some cells were observed
same,increase of thymidine incorporation,MC3T3-E1 osteoblasts,more than 4.5 fold
same,"change in DNA synthesis (thymidine incorporation), in words",MC3T3-E1 osteoblasts,significantly enhanced
same,optimum dose for proliferation,[4],2.5 to 5 ng/mL
same,Total Protein/Culture,[1],1.49
fibronectin,"MC3T3-E1 cell proliferation, in words",MC3T3-E1 cells [5],significantly increased
insulin-like growth factor-1 [IGF-1],"re-growth of cells into the defect, in words",MC3T3-E1 cell monolayers,little and unremarkable re-growth
same,"change in DNA synthesis (thymidine incorporation), in words",MC3T3-E1 osteoblasts,small and unremarkable changes
same,Total Protein/Culture,[1],1.19
platelet-derived growth factor [PDGF],"re-growth of cells into the defect, in words",MC3T3-E1 cell monolayers,little and unremarkable re-growth
same,"change in DNA synthesis (thymidine incorporation), in words",MC3T3-E1 osteoblasts,small and unremarkable changes
same,Total Protein/Culture,[1],1.38
transforming growth factor β [TGFβ],"re-growth of cells into the defect, in words",MC3T3-E1 cell monolayers,showed cellular proliferation at the interface of the mature cultures and the defect
same,relative migration,MC3T3-E1 cell monolayers,1.8±0.4 mm
same,increase of thymidine incorporation,MC3T3-E1 osteoblasts,more than 2 fold
same,"change in DNA synthesis (thymidine incorporation), in words",MC3T3-E1 osteoblasts,significantly enhanced
same,Total Protein/Culture,[1],1.55
